Measured values from PMC5218480 (PLoS ONE, 2017).

Test system: MV-4-11 cells
Experiment: Gene expression microarray analysis (Affymetrix PrimeView) and GSEA
Assay type: cell-based, human
Set-up: RFU PODN (11730768_x_at) / Fold change /veh PODN (11730768_x_at) / RFU LINC00158 (11744669_a_at) / Fold change /veh LINC00158 (11744669_a_at) / RFU DUSP10 (11751237_a_at) / Fold change /veh DUSP10 (11751237_a_at) / RFU ID3 (11757404_x_at) / Fold change /veh ID3 (11757404_x_at) / RFU PLEKHG5 (11737974_s_at) / Fold change /veh PLEKHG5 (11737974_s_at) / RFU LRRC4B (11730491_at) / Fold change /veh LRRC4B (11730491_at) / RFU GIMAP4 (11747438_a_at) / Fold change /veh GIMAP4 (11747438_a_at) / RFU KRT8 (11758183_x_at) / Fold change /veh KRT8 (11758183_x_at) / RFU CNN1 (11734310_a_at) / Fold change /veh CNN1 (11734310_a_at) / RFU VPS37D (11726825_at) / Fold change /veh VPS37D (11726825_at) / RFU C10orf10 (11716522_x_at) / Fold change /veh C10orf10 (11716522_x_at) / RFU KIR2DL2 /// KIR2DL4 /// KIR2DL5A /// KIR2DL5B /// KIR2DS1 /// KIR2DS2 /// KIR2DS3 /// KIR2DS4 /// KIR3DL3 /// KIR3DL3 /// KIR3DS1 (11738374_at) / Fold change /veh KIR2DL2 /// KIR2DL4 /// KIR2DL5A /// KIR2DL5B /// KIR2DS1 /// KIR2DS2 /// KIR2DS3 /// KIR2DS4 /// KIR3DL3 /// KIR3DL3 /// KIR3DS1 (11738374_at) / RFU C1QL1 (11718748_at) / Fold change /veh C1QL1 (11718748_at) / RFU TMPRSS4 (11747572_a_at) / Fold change /veh TMPRSS4 (11747572_a_at) / RFU HAMP (11756126_x_at) / Fold change /veh HAMP (11756126_x_at) / RFU RNFT2 (11725882_a_at) / Fold change /veh RNFT2 (11725882_a_at) / RFU NR4A2 (11747474_a_at) / Fold change /veh NR4A2 (11747474_a_at) / RFU ABCC12 (11746883_a_at) / Fold change /veh ABCC12 (11746883_a_at) / RFU TMEM136 (11760407_x_at) / Fold change /veh TMEM136 (11760407_x_at) / RFU CLDN22 /// WWC2 (11732394_at) / Fold change /veh CLDN22 /// WWC2 (11732394_at) / RFU HLA-DPB1 (11760878_x_at) / Fold change /veh HLA-DPB1 (11760878_x_at) / RFU SPINT1 (11716480_a_at) / Fold change /veh SPINT1 (11716480_a_at) / RFU GAP43 (11754022_s_at) / Fold change /veh GAP43 (11754022_s_at) / RFU A4GNT (11735810_at) / Fold change /veh A4GNT (11735810_at) / RFU PRB3 (11715151_x_at) / Fold change /veh PRB3 (11715151_x_at) / RFU TUBB4B (11761932_at) / Fold change /veh TUBB4B (11761932_at) / RFU CAPN14 (11732068_a_at) / Fold change /veh CAPN14 (11732068_a_at) / RFU TMCC2 (11721928_a_at) / Fold change /veh TMCC2 (11721928_a_at) / RFU IRGQ (11745062_a_at) / Fold change /veh IRGQ (11745062_a_at) / RFU FAM174B (11720279_a_at) / Fold change /veh FAM174B (11720279_a_at) / RFU TMPRSS4 (11748680_a_at) / Fold change /veh TMPRSS4 (11748680_a_at) / RFU FAM212B (11763350_a_at) / Fold change /veh FAM212B (11763350_a_at) / RFU PLEKHG5 (11743358_a_at) / Fold change /veh PLEKHG5 (11743358_a_at) / RFU ZSCAN30 (11745921_a_at) / Fold change /veh ZSCAN30 (11745921_a_at) / RFU CMKLR1 (11741424_a_at) / Fold change /veh CMKLR1 (11741424_a_at) / RFU LOC101060620 /// MAPK8IP1 (11723275_at) / Fold change /veh LOC101060620 /// MAPK8IP1 (11723275_at) / RFU SPTSSB (11747773_x_at) / Fold change /veh SPTSSB (11747773_x_at) / RFU PRSS12 (11739890_at) / Fold change /veh PRSS12 (11739890_at) / RFU BIN1 (11741810_x_at) / Fold change /veh BIN1 (11741810_x_at) / RFU WNT11 (11732464_a_at) / Fold change /veh WNT11 (11732464_a_at) / RFU C10orf10 (11716521_a_at) / Fold change /veh C10orf10 (11716521_a_at) / RFU C5orf56 (11738089_at) / Fold change /veh C5orf56 (11738089_at) / RFU CYB561 (11721691_x_at) / Fold change /veh CYB561 (11721691_x_at) / RFU ANKRD19P (11752326_a_at) / Fold change /veh ANKRD19P (11752326_a_at) / RFU OR2T12 /// OR2T33 /// OR2T8 (11738714_s_at) / Fold change /veh OR2T12 /// OR2T33 /// OR2T8 (11738714_s_at) / RFU VCAN (11748164_a_at) / Fold change /veh VCAN (11748164_a_at) / RFU JSRP1 (11732532_at) / Fold change /veh JSRP1 (11732532_at) / RFU KRTAP10-11 (11738290_x_at) / Fold change /veh KRTAP10-11 (11738290_x_at) / RFU MYO3A (11730013_a_at) / Fold change /veh MYO3A (11730013_a_at) / RFU EBF3 (11725865_a_at) / Fold change /veh EBF3 (11725865_a_at) / RFU CAMK2N1 (11719241_x_at) / Fold change /veh CAMK2N1 (11719241_x_at) / RFU C5orf56 (11738088_a_at) / Fold change /veh C5orf56 (11738088_a_at) / RFU OLFML3 (11715873_a_at) / Fold change /veh OLFML3 (11715873_a_at) / RFU LOC100653217 /// NTM (11731650_a_at) / Fold change /veh LOC100653217 /// NTM (11731650_a_at) / RFU MAPK11 (11762145_a_at) / Fold change /veh MAPK11 (11762145_a_at) / RFU FIZ1 (11724087_x_at) / Fold change /veh FIZ1 (11724087_x_at) / RFU OASL (11726364_x_at) / Fold change /veh OASL (11726364_x_at) / RFU SOX15 (11748057_x_at) / Fold change /veh SOX15 (11748057_x_at) / RFU CD79A (11719716_a_at) / Fold change /veh CD79A (11719716_a_at) / RFU HIST1H1D (11736915_at) / Fold change /veh HIST1H1D (11736915_at) / RFU CASKIN2 (11723855_a_at) / Fold change /veh CASKIN2 (11723855_a_at) / RFU LOC730098 (11760151_x_at) / Fold change /veh LOC730098 (11760151_x_at) / RFU OR4N2 (11742367_at) / Fold change /veh OR4N2 (11742367_at) / RFU PRRT2 (11749266_a_at) / Fold change /veh PRRT2 (11749266_a_at) / RFU SNX32 (11753110_a_at) / Fold change /veh SNX32 (11753110_a_at) / RFU CDHR5 (11726645_a_at) / Fold change /veh CDHR5 (11726645_a_at) / RFU RCAN1 (11760418_a_at) / Fold change /veh RCAN1 (11760418_a_at) / RFU FAM167A (11723789_a_at) / Fold change /veh FAM167A (11723789_a_at) / RFU FAM26E (11764081_at) / Fold change /veh FAM26E (11764081_at) / RFU ISYNA1 (11749810_s_at) / Fold change /veh ISYNA1 (11749810_s_at) / RFU ACY1 (11761880_at) / Fold change /veh ACY1 (11761880_at) / RFU 11764098_at / Fold change /veh 11764098_at / RFU SAMD14 (11745864_x_at) / Fold change /veh SAMD14 (11745864_x_at) / RFU NPB (11741838_a_at) / Fold change /veh NPB (11741838_a_at) / RFU TMPRSS6 (11731388_a_at) / Fold change /veh TMPRSS6 (11731388_a_at) / RFU KRTAP10-2 (11738614_at) / Fold change /veh KRTAP10-2 (11738614_at) / RFU ARHGAP8 /// PRR5-ARHGAP8 (11727945_x_at) / Fold change /veh ARHGAP8 /// PRR5-ARHGAP8 (11727945_x_at) / RFU KRTAP5-7 /// NADSYN1 (11734609_at) / Fold change /veh KRTAP5-7 /// NADSYN1 (11734609_at) / RFU RASL12 (11751679_a_at) / Fold change /veh RASL12 (11751679_a_at) / RFU CDKN2B (11736163_a_at) / Fold change /veh CDKN2B (11736163_a_at) / RFU PRF1 (11729649_at) / Fold change /veh PRF1 (11729649_at) / RFU, ZNF638 /// ZNF638-IT1 / Fold change vs veh, ZNF638 /// ZNF638-IT1 / RFU, PANK3 / Fold change vs veh, PANK3 / RFU, SH3YL1 / Fold change vs veh, SH3YL1 / RFU, ZEB2 / Fold change vs veh, ZEB2 / RFU, NRIP1 / Fold change vs veh, NRIP1 / RFU, PTTG1IP / Fold change vs veh, PTTG1IP / RFU, CAPN2 / Fold change vs veh, CAPN2 / RFU, MED14 / Fold change vs veh, MED14 / RFU, SNORA58 / Fold change vs veh, SNORA58 / RFU, C1orf63 / Fold change vs veh, C1orf63 / RFU, LRRFIP1 / Fold change vs veh, LRRFIP1 / RFU, NDUFAF7 / Fold change vs veh, NDUFAF7 / RFU, SLC12A2 / Fold change vs veh, SLC12A2 / RFU, IBTK / Fold change vs veh, IBTK / RFU, ESF1 / Fold change vs veh, ESF1 / Fold change vs veh, TMEM50B / RFU, TAOK1 / Fold change vs veh, TAOK1 / RFU, ACBD3 / Fold change vs veh, ACBD3 / RFU, TMA16 / Fold change vs veh, TMA16 / RFU, RWDD3 / Fold change vs veh, RWDD3 / RFU, BCAT1 / Fold change vs veh, BCAT1 / RFU, EDEM3 / Fold change vs veh, EDEM3 / RFU, TMEM33 / Fold change vs veh, TMEM33 / RFU, WDR75 / Fold change vs veh, WDR75 / RFU, AHCTF1 / Fold change vs veh, AHCTF1 / RFU, TFRC / Fold change vs veh, TFRC / RFU, ZDHHC17 / Fold change vs veh, ZDHHC17 / RFU, NOM1 / Fold change vs veh, NOM1 / RFU, ARL8B / Fold change vs veh, ARL8B / RFU, ZBTB11 / Fold change vs veh, ZBTB11 / RFU, TAMM41 / Fold change vs veh, TAMM41 / RFU, KIAA1704 /// LOC100996395 / Fold change vs veh, KIAA1704 /// LOC100996395 / RFU, ING1 / Fold change vs veh, ING1 / RFU, TRMT61B / Fold change vs veh, TRMT61B / RFU, FUBP3 / Fold change vs veh, FUBP3 / RFU, TP53 / Fold change vs veh, TP53 / RFU, TNKS2 / Fold change vs veh, TNKS2 / RFU, ZFP14 / Fold change vs veh, ZFP14 / RFU, ACTR2 / Fold change vs veh, ACTR2 / RFU, PPP3R1 / Fold change vs veh, PPP3R1 / RFU, PIK3R1 / Fold change vs veh, PIK3R1 / RFU, HNRNPA1 / Fold change vs veh, HNRNPA1 / RFU, RNF170 / Fold change vs veh, RNF170 / RFU, ZNF28 / Fold change vs veh, ZNF28 / RFU, RNGTT / Fold change vs veh, RNGTT / RFU, OGT / Fold change vs veh, OGT / RFU, BRD1 / Fold change vs veh, BRD1 / RFU, MARS / Fold change vs veh, MARS / RFU, ZNF655 / Fold change vs veh, ZNF655 / RFU, FAHD1 / Fold change vs veh, FAHD1 / RFU, BDP1 / Fold change vs veh, BDP1 / RFU, LRRCC1 / Fold change vs veh, LRRCC1 / RFU, ARID1A / Fold change vs veh, ARID1A / RFU, ZNF146 / Fold change vs veh, ZNF146 / RFU, ZNF330 / Fold change vs veh, ZNF330 / RFU, GPN3 / Fold change vs veh, GPN3 / RFU, C9orf123 / Fold change vs veh, C9orf123 / RFU, N4BP2L2 / Fold change vs veh, N4BP2L2 / RFU, ARFIP1 / Fold change vs veh, ARFIP1 / RFU, FAM179B / Fold change vs veh, FAM179B / RFU, BCL10 / Fold change vs veh, BCL10 / RFU, UHRF1BP1L / Fold change vs veh, UHRF1BP1L / RFU, BET1 / Fold change vs veh, BET1 / RFU, CNOT2 / Fold change vs veh, CNOT2 / RFU, ZNF268 / Fold change vs veh, ZNF268 / Fold change vs veh, ZNF507 / RFU, DGCR2 / Fold change vs veh, DGCR2 / RFU, WDSUB1 / Fold change vs veh, WDSUB1 / Fold change vs veh, HSP90B1 /// MIR3652 / RFU, ADSS / Fold change vs veh, ADSS / RFU, GK / Fold change vs veh, GK / RFU, ZNF148 / Fold change vs veh, ZNF148 / RFU, TAF9 / Fold change vs veh, TAF9 / RFU, SLC1A5 / Fold change vs veh, SLC1A5 / RFU, SLMO2 / Fold change vs veh, SLMO2 / RFU, ABCC4 / Fold change vs veh, ABCC4 / RFU, LOC101060439 /// RAP1B / Fold change vs veh, LOC101060439 /// RAP1B / RFU, RFX7 / Fold change vs veh, RFX7 / RFU, GTPBP10 / Fold change vs veh, GTPBP10 / RFU, CNEP1R1 / Fold change vs veh, CNEP1R1 / RFU, BIVM-ERCC5 /// ERCC5 / Fold change vs veh, BIVM-ERCC5 /// ERCC5 / RFU, ILF3 / Fold change vs veh, ILF3 / RFU 11762660_at / Fold change /veh 11762660_at / RFU VCAN (11757783_s_at) / Fold change /veh VCAN (11757783_s_at) / RFU DDX43 (11728927_at) / Fold change /veh DDX43 (11728927_at) / RFU KRT8 (11758188_x_at) / Fold change /veh KRT8 (11758188_x_at) / RFU NKD1 (11759106_at) / Fold change /veh NKD1 (11759106_at) / RFU SRD5A1 (11742802_a_at) / Fold change /veh SRD5A1 (11742802_a_at) / RFU TPSAB1 /// TPSB2 (11721975_s_at) / Fold change /veh TPSAB1 /// TPSB2 (11721975_s_at) / RFU GSTM3 (11746129_a_at) / Fold change /veh GSTM3 (11746129_a_at) / RFU IL23R (11737362_x_at) / Fold change /veh IL23R (11737362_x_at) / RFU TMEM51 (11727254_a_at) / Fold change /veh TMEM51 (11727254_a_at) / RFU PIWIL2 (11732686_x_at) / Fold change /veh PIWIL2 (11732686_x_at) / RFU ORM1 (11744905_x_at) / Fold change /veh ORM1 (11744905_x_at) / RFU CCDC152 (11743942_at) / Fold change /veh CCDC152 (11743942_at) / RFU ECM1 (11717891_a_at) / Fold change /veh ECM1 (11717891_a_at) / RFU IL23R (11748794_a_at) / Fold change /veh IL23R (11748794_a_at) / RFU TNFAIP8L3 (11732012_x_at) / Fold change /veh TNFAIP8L3 (11732012_x_at) / RFU MBOAT4 (11741988_at) / Fold change /veh MBOAT4 (11741988_at) / RFU 11764193_at / Fold change /veh 11764193_at / RFU TMEM53 (11763286_at) / Fold change /veh TMEM53 (11763286_at) / RFU MAGEB2 (11727129_at) / Fold change /veh MAGEB2 (11727129_at) / RFU TMEM200A (11744735_a_at) / Fold change /veh TMEM200A (11744735_a_at) / RFU CCDC152 (11751479_a_at) / Fold change /veh CCDC152 (11751479_a_at) / RFU FAM211A (11726209_a_at) / Fold change /veh FAM211A (11726209_a_at) / RFU RGS16 (11746705_a_at) / Fold change /veh RGS16 (11746705_a_at) / RFU VCAN (11755009_s_at) / Fold change /veh VCAN (11755009_s_at) / RFU RHOB (11743442_s_at) / Fold change /veh RHOB (11743442_s_at) / RFU RGS16 (11720943_a_at) / Fold change /veh RGS16 (11720943_a_at) / RFU RGS16 (11720944_at) / Fold change /veh RGS16 (11720944_at) / RFU, VPS4B / Fold change vs veh, VPS4B / RFU, CREB1 / Fold change vs veh, CREB1 / RFU, DNAJC13 / Fold change vs veh, DNAJC13 / RFU, GNAQ / Fold change vs veh, GNAQ / RFU, CDK5R1 / Fold change vs veh, CDK5R1 / RFU, ZRANB3 / Fold change vs veh, ZRANB3 / RFU, CUL4A / Fold change vs veh, CUL4A / RFU, CCNY / Fold change vs veh, CCNY / RFU, UFL1 / Fold change vs veh, UFL1 / RFU, COG3 / Fold change vs veh, COG3 / RFU, DIAPH2 / Fold change vs veh, DIAPH2 / RFU, SKA2 / Fold change vs veh, SKA2 / RFU, AFF3 / Fold change vs veh, AFF3 / RFU, LMF1 / Fold change vs veh, LMF1 / RFU, IPO11 / Fold change vs veh, IPO11 / RFU, DFFB / Fold change vs veh, DFFB / RFU, FOXP1 / Fold change vs veh, FOXP1 / RFU, CARD8 / Fold change vs veh, CARD8 / RFU, STRN3 / Fold change vs veh, STRN3 / RFU, ADK / Fold change vs veh, ADK / RFU, RASSF2 / Fold change vs veh, RASSF2 / RFU, WIPF1 / Fold change vs veh, WIPF1 / RFU, LARP1B / Fold change vs veh, LARP1B / RFU, RASA1 / Fold change vs veh, RASA1 / RFU, RB1 / Fold change vs veh, RB1 / RFU, PPFIA1 / Fold change vs veh, PPFIA1 / RFU, MAT2A / Fold change vs veh, MAT2A / RFU, CCT5 / Fold change vs veh, CCT5 / RFU, WDR92 / Fold change vs veh, WDR92 / RFU, CUX1 / Fold change vs veh, CUX1 / RFU, TTC7A / Fold change vs veh, TTC7A / RFU, TMEM135 / Fold change vs veh, TMEM135 / RFU, DEPTOR / Fold change vs veh, DEPTOR / RFU, CPM / Fold change vs veh, CPM / RFU, DNAJB6 / Fold change vs veh, DNAJB6 / RFU, CACNA2D3 / Fold change vs veh, CACNA2D3 / RFU, DTX4 / Fold change vs veh, DTX4 / RFU, TFCP2 / Fold change vs veh, TFCP2 / RFU, GMCL1 /// GMCL1P1 / Fold change vs veh, GMCL1 /// GMCL1P1 / RFU, AEBP2 / Fold change vs veh, AEBP2 / RFU, SNHG1 /// SNORD22 /// SNORD25 /// SNORD26 /// SNORD27 /// SNORD28 /// SNORD29 /// SNORD31 / Fold change vs veh, SNHG1 /// SNORD22 /// SNORD25 /// SNORD26 /// SNORD27 /// SNORD28 /// SNORD29 /// SNORD31 / Fold change (Aza/veh), C12orf56 (ProbeSet 11735607_a_at) / Fold change (ACY-1035/veh), C12orf56 (ProbeSet 11735607_a_at) / Fold change (Aza/veh), FGFR1OP (ProbeSet 11751329_s_at) / Fold change (ACY-1035/veh), FGFR1OP (ProbeSet 11751329_s_at) / Fold change (Aza/veh), VPS36 (ProbeSet 11739960_a_at) / Fold change (ACY-1035/veh), VPS36 (ProbeSet 11739960_a_at) / RFU SYPL1 (11715823_x_at) / Fold change /veh SYPL1 (11715823_x_at) / RFU IGFBP7 (11715501_s_at) / Fold change /veh IGFBP7 (11715501_s_at) / RFU REEP3 (11722064_at) / Fold change /veh REEP3 (11722064_at) / RFU IGLL1 (11728026_x_at) / Fold change /veh IGLL1 (11728026_x_at): dose or concentration left out as unconfirmed
Details: ProbeSet 11745428_a_at; LIST D

Nc1ncn([C@@H]2O[C@H](CO)[C@@H](O)[C@H]2O)c(=O)n1 [azacitidine]
Fold change vs veh, DFFB: 0.78
